Bounds are passed on as bounds.

Sequence of ROCK1;ROCK2 (human) (O75116 whole entry, looked up): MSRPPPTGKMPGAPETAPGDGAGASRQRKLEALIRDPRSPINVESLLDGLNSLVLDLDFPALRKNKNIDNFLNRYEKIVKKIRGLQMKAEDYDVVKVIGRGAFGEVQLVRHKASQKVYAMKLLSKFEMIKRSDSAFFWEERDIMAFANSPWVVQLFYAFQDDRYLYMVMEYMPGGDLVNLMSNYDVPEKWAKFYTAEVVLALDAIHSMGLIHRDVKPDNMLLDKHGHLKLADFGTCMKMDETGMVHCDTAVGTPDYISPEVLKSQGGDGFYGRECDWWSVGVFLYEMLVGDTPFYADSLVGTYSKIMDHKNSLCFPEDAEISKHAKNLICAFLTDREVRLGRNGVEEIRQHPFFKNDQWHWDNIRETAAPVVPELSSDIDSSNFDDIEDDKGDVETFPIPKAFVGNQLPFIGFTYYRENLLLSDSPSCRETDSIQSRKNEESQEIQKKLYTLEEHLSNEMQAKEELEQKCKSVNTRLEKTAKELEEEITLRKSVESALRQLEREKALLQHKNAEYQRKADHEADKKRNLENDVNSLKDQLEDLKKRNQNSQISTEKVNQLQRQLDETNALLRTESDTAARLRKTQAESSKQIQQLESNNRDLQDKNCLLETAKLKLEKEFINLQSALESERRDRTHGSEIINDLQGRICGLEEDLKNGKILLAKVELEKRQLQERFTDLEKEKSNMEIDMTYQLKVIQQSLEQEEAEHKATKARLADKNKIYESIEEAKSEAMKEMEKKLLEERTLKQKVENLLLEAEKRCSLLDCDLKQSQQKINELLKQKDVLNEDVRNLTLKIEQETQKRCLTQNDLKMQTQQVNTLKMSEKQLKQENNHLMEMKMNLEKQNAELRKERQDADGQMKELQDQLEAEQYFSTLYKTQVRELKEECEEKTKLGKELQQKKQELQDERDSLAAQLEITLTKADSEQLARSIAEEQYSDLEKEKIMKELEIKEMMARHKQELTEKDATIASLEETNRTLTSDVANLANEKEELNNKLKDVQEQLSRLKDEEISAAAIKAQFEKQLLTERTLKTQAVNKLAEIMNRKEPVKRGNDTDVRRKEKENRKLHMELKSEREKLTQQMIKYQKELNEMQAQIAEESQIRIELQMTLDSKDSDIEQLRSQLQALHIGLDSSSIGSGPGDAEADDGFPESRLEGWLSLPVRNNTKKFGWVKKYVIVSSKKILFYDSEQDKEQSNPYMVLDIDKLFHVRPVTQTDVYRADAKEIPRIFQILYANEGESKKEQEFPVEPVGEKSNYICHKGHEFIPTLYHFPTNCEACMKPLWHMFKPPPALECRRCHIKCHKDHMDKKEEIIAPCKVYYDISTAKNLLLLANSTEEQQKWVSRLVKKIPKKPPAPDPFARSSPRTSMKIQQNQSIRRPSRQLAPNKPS

The experiment addresses ROCK1;ROCK2 (human) (UniProt O75116). The experiment in a line: Inhibition of ROCK1/ROCK2 Kinase Activity.
The term IC50 denotes the point on the concentration scale where inhibition reaches its midpoint. A lower IC50 goes with greater potency in that assay. The compound `CC(N)c1ccc(C(=O)Nc2ccncc2)cc1-c1cccs1` (stereo unspecified) registered an IC50 below 0.05 µM. With `CC(N)c1ccc(C(=O)Nc2ccncc2)cc1-c1ccc(F)cc1` (stereo unspecified) the figure was below 0.05 µM. With `CC(N)c1ccc(C(=O)Nc2ccncc2)cc1OCCCO` (stereo unspecified) the figure was 0.5 to 5 µM. `CC(N)c1ccc(C(=O)Nc2ccncc2)cc1NCc1ccco1` (stereo unspecified) came in with an IC50 of 0.05 to 0.5 µM. With `CC(N)c1ccc(C(=O)Nc2ccncc2)cc1NC(=O)c1ccc(Cl)cc1` (stereo unspecified) the figure was 0.05 to 0.5 µM; with `CC(N)c1ccc(C(=O)Nc2ccncc2)cc1OCCO` (stereo unspecified), 0.5 to 5 µM; with `CC(N)c1ccc(C(=O)Nc2ccncc2)cc1-c1ccc2ccccc2c1` (stereo unspecified), below 0.05 µM. For the compound `CC(N)c1ccc(C(=O)Nc2ccncc2)cc1NC(=S)Nc1ccccc1` (stereo unspecified), the IC50 lay in the range of 0.05 to 0.5 µM. On to `CC(N)c1ccc(C(=O)Nc2ccncc2)cc1O` (stereo unspecified), for which the IC50 lay within 0.5 to 5 µM.

For `CC(N)c1ccc(C(=O)Nc2ccncc2)cc1OCCN` (stereo unspecified), the IC50 is 0.5 to 5 µM. With `C[C@@H](N)c1ccc(C(=O)Nc2ccncc2)cc1-c1cccs1` the figure was below 0.05 µM. Next, `CC(N)c1ccc(C(=O)Nc2ccncc2)cc1-c1cccc(Cl)c1` (stereo unspecified): below 0.05 µM; `COc1ccc(C(=O)Nc2cc(C(=O)Nc3ccncc3)ccc2C(C)N)cc1` (stereo unspecified): below 0.05 µM. `CC(N)c1ccc(C(=O)Nc2ccncc2)cc1-c1ccc(Cl)cc1` (stereo unspecified) returned an IC50 below 0.05 µM. Next, `CC(N)c1ccc(C(=O)Nc2ccncc2)cc1[N+](=O)[O-]` (stereo unspecified): 0.05 to 0.5 µM; `CC(N)c1ccc(C(=O)Nc2ccncc2)cc1-c1ccoc1` (stereo unspecified): 0.05 to 0.5 µM. With `CC(N)c1ccc(C(=O)Nc2ccncc2)cc1NC(=O)c1ccco1` (stereo unspecified) the figure was 0.05 to 0.5 µM; with `CC(N)c1ccc(C(=O)Nc2ccncc2)cc1OCCCN` (stereo unspecified), 0.5 to 5 µM. As for `CC(N)c1ccc(C(=O)Nc2ccncc2)cc1NC(=O)Nc1ccccc1` (stereo unspecified), the half-inhibitory concentration (IC50) was 0.05 to 0.5 µM. As for `CC(N)c1ccc(C(=O)Nc2ccncc2)cc1NC(=O)c1cccc(Cl)c1` (stereo unspecified), the IC50 fell in the range of 0.05 to 0.5 µM. With `CC(N)c1ccc(C(=O)Nc2ccncc2)cc1OCc1ccccc1` (stereo unspecified) the figure was 0.05 to 0.5 µM.

In turn, `C[C@H](N)c1ccc(C(=O)Nc2ccncc2)cc1-c1cccs1` had an IC50 of 0.05 to 0.5 µM.

The compound `CC(N)c1ccc(C(=O)Nc2ccncc2)cc1NC(=O)c1ccccc1` (stereo unspecified) had an IC50 of 0.05 to 0.5 µM.

Turning to `COc1cccc(C(=O)Nc2cc(C(=O)Nc3ccncc3)ccc2C(C)N)c1` (stereo unspecified), the IC50 was below 0.05 µM.

Take `COc1ccc(-c2cc(C(=O)Nc3ccncc3)ccc2C(C)N)cc1` (stereo unspecified): the IC50 lay within 0.05 to 0.5 µM.

The compound `CC(N)c1ccc(C(=O)Nc2ccncc2)cc1N` (stereo unspecified) showed an IC50 of 0.5 to 5 µM.
